Measurements taken from publication PMC6792352, “Limited Chemical Structural Diversity Found to Modulate Thyroid Hormone Receptor in the Tox21 Chemical Library” (Environmental Health Perspectives, 2019).
Like-named read-outs stand apart in the source and are kept apart here.

Tests used:
[1] = Global cytotoxicity: eighteen Tox21 cell viability assays; type: cell-based
[2] = tested on: Tox21 cell viability assays (different cell types); test: as above; type: cell-based; conditions: for Active in global cytotoxicity assays (%): percentage of 18 Tox21 viability assays with hitc=1
in vitro = conditions: rat
[3] = tested on: thyroid hormone receptor (endogenous TRα and TRβ); test: GH3-TRE-Antag primary qHTS, luciferase reporter, antagonist mode with 1 nM T3 (TOX21_TR_LUC_GH3_Antagonist, aeid 804); type: cell-based, rat; conditions: antagonist mode, 1 nM T3; read-out: GH3-TRE-Antag AC50
[4] = tested on: thyroid hormone receptor (endogenous TRα and TRβ); test: GH3-TRE-Ag primary qHTS, luciferase reporter, agonist mode (TOX21_TR_LUC_GH3_Agonist, aeid 803); type: cell-based, rat; conditions: for GH3-TRE-Ag AC50 hitc: hit call from tcpl
[5] = tested on: thyroid hormone receptor (TR); test: Classification of TR actives across characterization assays (TR-Ag / RXR-Ag; TR model binary); conditions: for Categorization Code: TR agonist characterization; for Classification: TR-Ag = TR agonist, RXR-Ag = RXR agonist
How it was run: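 Pharmaceuticals excluded; actives called from GH3-TRE qHTS (agonist, antagonist, viability) on 8,305 chemicals. Confirmation of 84 selected chemicals used GH3-TRE-Ag, mammalian one-hybrid TRβ and RXRα UAS-bla HEK 293T specificity screens, parental HEK293T viability, and two TR:coactivator recruitment assays.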

GH3-TRE-Luc cell line [6] = conditions: rat, 24 h
[7] = tested on: thyroid hormone receptor (endogenous TRα and TRβ); test: GH3-TRE-Ag-Followup confirmation (TOX21_TR_LUC_GH3_Agonist_Followup, aeid 2226); type: cell-based, rat; conditions: for AC50: confirmation, agonist mode, read-out: GH3-TRE-Ag-Followup AC50; for GH3-TRE-Ag-Followup hitc: hit call from tcpl
[8] = target: T1, human TRβ ligand-binding domain (Homo sapiens, UniProt P10828); test: TRb-bla agonist mammalian one-hybrid beta-lactamase assay (TOX21_TRB_BLA_Agonist_Followup_ratio, aeid 2236); type: cell-based; set-up: host or cells: GeneBLAzer UAS-bla HEK 293T; conditions: for Emax: read-out: EMax (% of Control) trb-bla-agonist-followup-1; for AC50: HEK 293T one-hybrid, agonist mode, read-out: TRb-bla-Ag AC50; for TRb-bla hitc: hit call from tcpl, agonist
T1 sequence (P10828 217-461 limits assumed): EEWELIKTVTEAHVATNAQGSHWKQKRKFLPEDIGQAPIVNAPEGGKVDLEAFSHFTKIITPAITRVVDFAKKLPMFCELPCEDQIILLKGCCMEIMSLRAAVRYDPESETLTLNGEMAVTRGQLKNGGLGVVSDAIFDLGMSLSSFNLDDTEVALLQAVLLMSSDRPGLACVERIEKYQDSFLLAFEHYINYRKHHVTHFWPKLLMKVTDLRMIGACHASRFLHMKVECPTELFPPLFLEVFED

GH3-TRE-Luc cell line [9] = test: GH3-TRE-Via cell viability, CellTiter-Fluor (TOX21_TR_LUC_GH3_Antagonist_viability, aeid 805); conditions: hit call from tcpl
[10] = target: T1, human TRβ ligand-binding domain; test: TRb-coa LanthaScreen TR-FRET coactivator (SRC-2 peptide) recruitment, agonist (TOX21_TRB_COA_Agonist_Followup_ratio, aeid 2244); type: biochemical; set-up: host or cells: GeneBLAzer UAS-bla HEK 293T; conditions: for Emax: read-out: EMax (% of Control) trb-coa-agonist-followup-1; for AC50: cell-free coactivator recruitment, read-out: TRb-coa-Ag AC50; for TRb-coa hitc: hit call from tcpl, agonist
human RXRα = target: T2, human RXRα (Homo sapiens, UniProt P19793); test: RXRa-bla-Ag mammalian one-hybrid beta-lactamase assay (TOX21_TR_RXR_BLA_Agonist_Followup_ratio, aeid 2253); type: cell-based; conditions: for AC50: HEK 293T one-hybrid, agonist mode, inactive set to 1,000, read-out: RXRa-bla-Ag AC50; for tr-followup-rxr-bla-agonist-1 hitc: hit call from tcpl; for Emax: read-out: EMax (% of Control) tr-followup-rxr-bla-agonist-1
T2 construct: host or cells: GeneBLAzer UAS-bla HEK 293T
T2 sequence (P19793 227-458 limits assumed): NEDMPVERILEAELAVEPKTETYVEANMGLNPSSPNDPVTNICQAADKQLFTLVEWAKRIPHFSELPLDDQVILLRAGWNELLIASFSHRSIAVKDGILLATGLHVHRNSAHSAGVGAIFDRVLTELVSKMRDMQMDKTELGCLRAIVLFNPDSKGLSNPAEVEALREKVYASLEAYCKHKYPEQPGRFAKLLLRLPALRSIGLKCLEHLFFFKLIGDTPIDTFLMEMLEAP

[11] = target: T3, TRα ligand-binding domain (Homo sapiens, UniProt P10827); test: TRa-coa LanthaScreen TR-FRET coactivator (SRC-2 peptide) recruitment, agonist (TOX21_TRA_COA_Agonist_Followup_ratio, aeid 2230); type: biochemical; conditions: for AC50: cell-free coactivator recruitment, read-out: TRa-coa-Ag AC50; for TRa-coa hitc: hit call from tcpl, agonist; for Emax: read-out: EMax (% of Control) tra-coa-agonist-followup-1
T3 construct: the receptor LBDs expressed as glutathione S-transferase (GST) fusion proteins; purchased

[12] = GH3-TRE-Via cell viability, CellTiter-Fluor (TOX21_TR_LUC_GH3_Antagonist_viability, aeid 805); conditions: rat
[13] = median over 18 Tox21 cell viability assays, inactive set to 1,000, read-out: Global cytotoxicity AC50 median
[14] = antagonist candidates, inactive samples arbitrarily set to AC50=1,000 μM, read-out: GH3-TRE-Ag AC50
[15] = primary qHTS, agonist mode, 24 h, top concentration 92 μM, read-out: GH3-TRE-Ag AC50

T3 sequence (P10827 163-410 isoform P10827-2 limits assumed, other chains not shown): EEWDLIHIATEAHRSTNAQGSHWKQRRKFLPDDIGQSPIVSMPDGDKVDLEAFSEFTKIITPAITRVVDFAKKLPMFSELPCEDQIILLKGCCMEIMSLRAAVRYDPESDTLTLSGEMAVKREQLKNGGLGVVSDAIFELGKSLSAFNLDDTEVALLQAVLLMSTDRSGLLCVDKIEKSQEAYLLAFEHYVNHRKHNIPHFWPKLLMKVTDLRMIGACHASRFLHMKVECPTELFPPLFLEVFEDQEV

SMILES	AC50 [3] [µM]	AC50 [4, 14] [µM]	Categorization Code [5]	Classification [5]	AC50 [1] [µM]	GLOBAL CYTOTOXICITY cytotox.median [2]	GLOBAL CYTOTOXICITY cytotox.number_Active [2]	TR_LUC_GH3_Antagonist_viability hitc (GH3-TRE-Luc cell line [6])	AC50 at 24 h (in vitro) [µM]	EMax (% of Control) gh3-tre-agonist-followup-1_agonist [7]	AC50 [7] [µM]	GH3-TRE-Ag-Followup hitc [7]	EMax (% of Control) gh3-tre-agonist [4]	GH3-TRE-Ag AC50 hitc [4]	Emax [8] [%]	Emax [10] [%]	AC50 [11] [µM]	TRa-coa hitc [11]	Emax [11] [%]	further results
CCCCCCCCCCCCn1cc[n+](C)c1.[I-] [1-Dodecyl-3-methylimidazolium iodide]	1.33	> 92	–	–	–	–	–	–	–	–	–	–	–	–	–	–	–	–	–	AC50 [1, 13]: 41.1 µM; Active in global cytotoxicity assays (%) [2]: 74.2%; AC50 (in vitro): 5.1 µM
N[C@@H](Cc1cc(I)c(Oc2ccc(O)c(I)c2)c(I)c1)C(=O)O [3,5,3ʹ-Triiodothyronine, reference compound]	–	–	TR-Ag	TR-Ag	> 92	>92	0	[…]	41.7	[…]	[…]	[…]	[…]	[…]	–	–	–	–	–	TR_LUC_GH3_Agonist_EMAX (% Control) ([4]; Table S5): […]; AC50 ([4]; Table S5, chemical level, listed as 3,5,3'-Triiodothyronine, read-out: TR_LUC_GH3_Agonist_AC50): […]
c1cc(N(CC2CO2)CC2CO2)ccc1Cc1ccc(N(CC2CO2)CC2CO2)cc1 (stereo not drawn) [4,4ʹ-Methylenebis(N,N-diglycidylaniline)]	8.03	> 92	–	–	–	–	–	–	–	–	–	–	–	–	–	–	–	–	–	AC50 [1, 13]: 45.3 µM; Active in global cytotoxicity assays (%) [2]: 59.1%; AC50 (in vitro): 11.1 µM
COc1cc(C)c(/C=C/C(C)=C/C=C/C(C)=C/C(=O)O)c(C)c1C [Acitretin, reference compound]	–	–	RXR-Ag	RXR-Ag	–	>92	0	–	> 92	79.4 % of Control	0.94	1	24.4 % of Control	1	4.1	4.8	> 92	0	3.4	AC50 ([1]; median over 18 Tox21 cell viability assays (Judson et al. 2016, invitrodb_v2), read-out: Global cytotoxicity AC50 median): > 92 µM; TR_LUC_GH3_Antagonist_viability hitc (GH3-TRE-Luc cell line [9]): 0; AC50 (human RXRα): 0.564 µM; tr-followup-rxr-bla-agonist-1 hitc (human RXRα): 1; Emax (human RXRα): 105%
C=C1CC[C@@H]2[C@](C)(CO)[C@H](O)CC[C@@]2(C)[C@@H]1C/C=C1/C(=O)OC[C@H]1O [Andrographolide]	24.6	> 92	–	–	–	–	–	–	–	–	–	–	–	–	–	–	–	–	–	AC50 at 24 h [12]: 19.4 µM
O=C(O)CCNC(=O)c1ccccc1 [Betamipron, reference compound]	–	–	TR-Ag	TR-Ag	> 92	>92	0	0	> 92	90.7 % of Control	1.68	1	72.8 % of Control	1	85.5	30.8	10.4	1	120	AC50 [8]: 14 µM; TRb-bla hitc [8]: 1; AC50 [10]: 11.8 µM; TRb-coa hitc [10]: 1; activity in RXRα-bla-Ag assay (human RXRα): lack of activity; AC50 (human RXRα): > 92 µM; tr-followup-rxr-bla-agonist-1 hitc (human RXRα): 0; Emax (human RXRα): 2.9%; activity in GH3-TRE agonist assay [4]: concentration-dependent activity; AC50 [4, 15]: 11.8 µM
C=C(c1ccc(C(=O)O)cc1)c1cc2c(cc1C)C(C)(C)CCC2(C)C [Bexarotene, reference compound]	–	–	RXR-Ag	RXR-Ag	23.9	23.9	15	1	10.4	37.1 % of Control	0.017	1	26.0 % of Control	0	11.8	-0.427	> 92	0	-0.4	AC50 [8]: > 92 µM; TRb-bla hitc [8]: 0; AC50 [10]: > 92 µM; TRb-coa hitc [10]: 0; AC50 [4, 15]: 0.0077 µM
